In patent US20080019926A1, “Lung Surfactant Supplements” (priority 2004, published 2008):
“Also recorded” adds a separate entry of the source.

Experiments:
Type in all cases: physicochemical
[1] = Grazing incidence X-ray diffraction of the DPPC monolayer; details: gaseous fluorocarbon, DPPC monolayer compressed at 40 mN·m^−1
Description: The two diffraction peaks seen in the absence of fluorocarbon are characteristics of the molecular organisation of DPPC in crystalline islets (▪).

[2] = Compression isotherm (surface pressure versus molecular area) of a Langmuir DPPC monolayer as pulmonary surfactant model
Description: The monolayer of native pulmonary surfactant was modeled by a Langmuir monolayer of DPPC. In this model, the DPPC molecules were spread using a spreading solvent onto the surface of water contained in a trough coated with Teflon®. After evaporation of the solvent, the DPPC molecules were progressively compressed using two mobile Teflon® barriers. The variation of the surface pressure was measured as a function of the compression by a pressure sensor such as a Wilhelmy blade.
Small quantities of perfluorooctyl bromide (PFOB) in liquid form (1-200 μl), contacted with the DPPC monolayer, result in the disappearance of the liquid expanded/liquid condensed phase transition of the phospholipid. […] FIG. 1 compares the compression isotherms of a DPPC monolayer alone and in contact with the fluorocarbon. In absence of fluorocarbon, one notes the presence of a plateau reflecting the coexistence of the expanded liquid state (fluid phase) and the condensed liquid state (crystalline islets). […] The DPPC monolayer is totally fluid.
Placing the Langmuir trough in a close space saturated with PFOB vapour, it is possible to study the interactions between the DPPC monolayer and the gaseous PFOB.

[3] = Fluorescence microscopy of the DPPC monolayer contacted with gaseous fluorocarbon
Description: Fluorescence microscopy makes it possible to visualize the dissolution of crystalline islets of DPPC molecules when the monolayer is contacted with gaseous PFOB (FIG. 3A).

[4] = gaseous fluorocarbon, saturated atmosphere

SMILES	diffraction peaks characteristic of DPPC crystalline islets / crystalline islets [1]	plateau reflecting the coexistence of the expanded liquid state (fluid phase) and the condensed liquid state (crystalline islets) in the DPPC compression isotherm [2, 4]	state of the DPPC monolayer ([2]; gaseous fluorocarbon)	state of the DPPC monolayer ([2]; liquid fluorocarbon)	plateau reflecting the coexistence of the expanded liquid state (fluid phase) and the condensed liquid state (crystalline islets) in the DPPC compression isotherm ([2]; liquid fluorocarbon (1-200 μl) contacted with the DPPC monolayer)	crystalline islets of DPPC seen by fluorescence microscopy, course with time ([3]; monolayer compressed at 10 mN·m^−1, 3, 5 and 7 min)	crystalline islets of DPPC seen by fluorescence microscopy ([3]; monolayer compressed at 10 mN·m^−1, after 3 minutes)	crystalline islets of DPPC seen by fluorescence microscopy ([3]; monolayer compressed at 10 mN·m^−1, after 5 minutes)	crystalline islets of DPPC seen by fluorescence microscopy ([3]; monolayer compressed at 10 mN·m^−1, after 7 minutes)
FC(F)(F)C(F)(F)C(F)(F)C(F)(F)C=CC(F)(F)C(F)(F)C(F)(F)C(F)(F)F [Example F-44E, bis(perfluorobutyl)ethene]	these peaks have disappeared; also recorded: disappearance of the crystalline islets	no longer seen; also recorded: disappears	–	–	–	–	–	–	–
FC(F)(F)C(F)(F)C(F)(F)C(F)(F)C(F)(F)C(F)(F)C(F)(F)C(F)(F)Br [PFOB, 1-bromo-heptadecafluorooctane]	–	no longer seen; also recorded: disappears	totally fluid	totally fluid	no longer seen; also recorded: disappeared totally	progressively disappear	becomes small	almost completely re-spread	completely disappeared
